Results from patent US20260137790A1, “MIXED VASOPRESSIN RECEPTOR AGONIST-ANTAGONIST FOR MODULATING MEAN ARTERIAL PRESSURE” (FERRING B.V., priority 2022, published 2026).

What was measured:
rV2 = molecular target: T1, rV2 (Rattus norvegicus, UniProt Q00788); experiment: Luciferase reporter gene assay, rV2; assay type: cell-based; settings: rV2, relative to dDAVP
T1 construct: host or cells: HEK-293 cells, transient
Experimental: (§1) Cell Maintenance. HEK-flp-in cells were maintained in Dulbecco's modified Eagle's medium (DMEM) containing 10% (v/v) heat-inactivated fetal bovine serum (FBS), 4 mM GlutaMAX™—I, and 25 μg/mL hygromycin B at 37° C. under 5% CO2 in a humidified atmosphere. […] On the day prior to the assay, cells were removed from culture flasks using trypsin EDTA, harvested in the medium used for cell culture, and seeded into 384-well (for V1a) or 96-well (for other receptors) poly-d-Iysine-treated plates at 7.5×10^4 cells in 20 μL/well for rV1a, 2.5×10^4 cells in 20 μL/well for hV1a, and 4-5×10^4 cells in 100 μL/well for all other receptors.
(§2) Functional Cell-Based Assays. To detect activity generated by binding of the test compounds to endogenous rV1a receptors or the stably expressed hV1a receptors, Fluorometric Imaging Plate Reader (FLlPR) calcium assays were performed. Briefly, real-time fluorescence of an intracellular calcium-sensitive dye was measured immediately upon addition of the test compound at various concentrations. […] Reporter gene assays were used to monitor agonist-induced activity at the human and rat V1b, V2, and OT receptors. […] Expression of the luciferase gene was determined after 5-h incubation with various concentrations of test compound. […] For V1a receptor response, area under the curve of the real-time calcium traces, expressed as relative fluorescence units, was determined. […]

rOTR = molecular target: T2, rOTR (Rattus norvegicus, UniProt P70536); settings: relative to carbetocin
T2 sequence (P70536 1-388): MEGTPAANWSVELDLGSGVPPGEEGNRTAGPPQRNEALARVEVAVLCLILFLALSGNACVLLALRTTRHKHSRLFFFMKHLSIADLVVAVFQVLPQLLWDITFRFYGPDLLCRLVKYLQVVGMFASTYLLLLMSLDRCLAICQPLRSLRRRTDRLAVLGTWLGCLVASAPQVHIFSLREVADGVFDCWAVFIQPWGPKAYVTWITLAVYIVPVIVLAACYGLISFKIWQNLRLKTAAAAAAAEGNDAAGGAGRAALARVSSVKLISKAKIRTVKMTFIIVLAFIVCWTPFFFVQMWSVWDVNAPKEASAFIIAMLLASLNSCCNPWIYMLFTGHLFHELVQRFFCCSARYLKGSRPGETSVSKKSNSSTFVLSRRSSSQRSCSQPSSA
Experimental: as §1, §2

adult male Wistar rats = experiment: Skin blood flow and blood lactate in anesthetized rats (IV infusion); assay type: in vivo, rat
Experimental: This study was performed over multiple experiments using a total of 48 adult male Wistar rats. […] Compounds were infused via an IV catheter at six sequentially increasing doses.
On the day of experimentation animals were anesthetized and instrumented. A tracheostomy was performed to allow assisted respiration and three catheters were placed. Laser Doppler probes were positioned on a shaved portion of the animal's lower abdominal skin for blood-flow measurements. Ventilation was initiated, and baseline readings for the primary parameter of skin blood flow (SBF) were recorded. Readings for the secondary parameters were also recorded: (1) blood lactate concentration, (2) mean arterial pressure (MAP), and (3) blood pH. Data collection was performed continuously for SBF and MAP using NOTOCORD-hem™ (Instem), and blood samples were taken at each compound dose and immediately analyzed using an i-STAT® meter.
After the final dose administration, animals were euthanized and a final SBF measurement was recorded to detect any signal from the flow probe after the animal's heart stopped beating to control for a signal not attributed to blood flow. Animal body temperature, pulse, and ventilation adequacy were monitored throughout the procedure.

T1 sequence (Q00788 whole entry): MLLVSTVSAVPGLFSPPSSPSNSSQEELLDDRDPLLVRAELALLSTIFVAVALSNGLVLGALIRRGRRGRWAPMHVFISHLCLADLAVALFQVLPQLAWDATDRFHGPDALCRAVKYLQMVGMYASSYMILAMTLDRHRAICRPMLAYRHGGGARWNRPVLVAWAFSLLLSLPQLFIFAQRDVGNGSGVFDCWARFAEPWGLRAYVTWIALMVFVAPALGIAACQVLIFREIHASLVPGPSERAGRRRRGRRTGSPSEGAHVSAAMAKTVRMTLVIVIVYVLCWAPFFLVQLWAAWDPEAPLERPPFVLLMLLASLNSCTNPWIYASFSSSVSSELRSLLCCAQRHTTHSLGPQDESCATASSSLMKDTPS

Q: Which results are given for `NC(=O)CC[C@@H]1NC(=O)[C@H](Cc2ccccc2)NC(=O)[C@H](Cc2ccc(O)cc2)NC(=O)[C@@H](N)CSSC[C@@H](C(=O)N2CCC[C@H]2C(=O)N[C@@H](CCCN=C(N)N)C(=O)NCC(N)=O)NC(=O)[C@H](CC(N)=O)NC1=O` [AVP, arginine vasopressin]?
A: % MPE Mean (rV2): 98 % MPE; % MPE Mean (rOTR): 82 % MPE; ED50, skin blood flow (adult male Wistar rats; anesthetized rats, IV infusion): 12.6 pmol/kg/min; mean blood lactate concentration (adult male Wistar rats; rats, IV 3 pmoL/kg/min): 1.34 mM; mean blood lactate concentration (adult male Wistar rats; rats, IV 600 pmoL/kg/min): 4.27 mM; blood lactate at highest doses tested (adult male Wistar rats; rats, IV, compared with vehicle): significantly elevated; decrease of skin blood flow from baseline (approximate maximal) (adult male Wistar rats; rats, intravenous administration): about 90%
